Measured values from the NIST ThermoML archive (doi:10.1016/j.jct.2011.02.018).

Assay: xn = mol fraction of the nth substance listed
Conditions: 101 kPa, Liquid; for viscosity: Concentric cylinders viscometry; for mass density: Vibrating tube method

COC(C)(C)C [2-methoxy-2-methylpropane] + CCCCO
Conditions | mass density, 293.15 K [kg/m3] | mass density, 298.15 K [kg/m3] | mass density, 303.15 K [kg/m3] | mass density, 308.15 K [kg/m3] | viscosity, 293.15 K [mPa·s] | viscosity, 298.15 K [mPa·s] | viscosity, 303.15 K [mPa·s] | viscosity, 308.15 K [mPa·s]
x1 = 0.0104 | 809.06 | 805.25 | 801.38 | 797.5 | 2.875 | 2.518 | 2.22 | 1.958
x1 = 0.0243 | 808.13 | 804.31 | 800.43 | 796.52 | 2.741 | 2.41 | 2.126 | 1.882
x1 = 0.0294 | 807.77 | 803.94 | 800.06 | 796.14 | 2.696 | 2.374 | 2.094 | 1.855
x1 = 0.0396 | 807.09 | 803.24 | 799.35 | 795.41 | 2.618 | 2.298 | 2.032 | 1.8
x1 = 0.0498 | 806.41 | 802.54 | 798.63 | 794.68 | 2.522 | 2.227 | 1.973 | 1.75
x1 = 0.0601 | 805.74 | 801.84 | 797.91 | 793.95 | 2.439 | 2.156 | 1.908 | 1.697
x1 = 0.0699 | 805.07 | 801.16 | 797.21 | 793.24 | 2.366 | 2.093 | 1.857 | 1.654
x1 = 0.0804 | 804.38 | 800.44 | 796.49 | 792.5 | 2.296 | 2.028 | 1.809 | 1.612
x1 = 0.0898 | 803.72 | 799.79 | 795.81 | 791.81 | 2.224 | 1.969 | 1.752 | 1.564
x1 = 0.1006 | 802.95 | 798.99 | 795 | 790.98 | 2.144 | 1.903 | 1.695 | 1.514
x1 = 0.1507 | 799.54 | 795.53 | 791.47 | 787.38 | 1.85 | 1.656 | 1.489 | 1.334
x1 = 0.1993 | 796.26 | 792.17 | 788.04 | 783.88 | 1.6 | 1.437 | 1.294 | 1.169
x1 = 0.2516 | 792.7 | 788.55 | 784.35 | 780.11 | 1.382 | 1.25 | 1.132 | 1.029
x1 = 0.3022 | 789.27 | 785.01 | 780.75 | 776.43 | 1.216 | 1.103 | 0.9992 | 0.9132
x1 = 0.3515 | 785.87 | 781.6 | 777.25 | 772.86 | 1.077 | 0.9815 | 0.893 | 0.8189
x1 = 0.4031 | 782.33 | 777.98 | 773.56 | 769.1 | 0.9523 | 0.8743 | 0.797 | 0.7323
x1 = 0.4497 | 779.15 | 774.73 | 770.24 | 765.7 | 0.8598 | 0.7902 | 0.7267 | 0.6743
x1 = 0.4999 | 775.69 | 771.23 | 766.66 | 762.05 | 0.7724 | 0.7125 | 0.6568 | 0.6081
x1 = 0.5485 | 772.39 | 767.84 | 763.2 | 758.52 | 0.6999 | 0.6476 | 0.5981 | 0.5512
x1 = 0.5953 | 769.2 | 764.57 | 759.86 | 755.11 | 0.6397 | 0.5937 | 0.5512 | 0.5073
x1 = 0.6445 | 765.82 | 761.14 | 756.35 | 751.52 | 0.585 | 0.5452 | 0.506 | 0.4692
x1 = 0.6999 | 762 | 757.24 | 752.37 | 747.46 | 0.53 | 0.4937 | 0.4595 | 0.4236
x1 = 0.7466 | 758.77 | 753.92 | 748.98 | 744 | 0.4912 | 0.4586 | 0.4275 | 0.395
x1 = 0.8067 | 754.66 | 749.65 | 744.63 | 739.55 | 0.4474 | 0.4167 | 0.3876 | 0.3578
x1 = 0.8404 | 752.26 | 747.22 | 742.14 | 737.01 | 0.4251 | 0.3961 | 0.3679 | 0.3465
x1 = 0.8695 | 750.22 | 745.15 | 740.03 | 734.85 | 0.408 | 0.3799 | 0.3544 | 0.3327
x1 = 0.8983 | 748.09 | 743 | 737.86 | 732.64 | 0.3889 | 0.3651 | 0.3371 | 0.3165
x1 = 0.9092 | 747.32 | 742.21 | 737.05 | 731.8 | 0.3832 | 0.3591 | 0.3333 | 0.3137
x1 = 0.9188 | 746.62 | 741.51 | 736.33 | 731.09 | 0.3778 | 0.3547 | 0.3301 | 0.3112
x1 = 0.9299 | 745.83 | 740.69 | 735.5 | 730.24 | 0.3717 | 0.3493 | 0.3249 | 0.305
x1 = 0.9398 | 745.11 | 739.96 | 734.74 | 729.47 | 0.3683 | 0.3491 | 0.329 | 0.3048
x1 = 0.9492 | 744.42 | 739.25 | 734.03 | 728.76 | 0.3654 | 0.3479 | 0.3225 | 0.3006
x1 = 0.9607 | 743.59 | 738.39 | 733.15 | 727.86 | 0.358 | 0.3391 | 0.3169 | 0.2958
x1 = 0.9697 | 742.97 | 737.75 | 732.49 | 727.18 | 0.356 | 0.331 | 0.3107 | 0.2998
x1 = 0.9796 | 742.24 | 737.01 | 731.74 | 726.41 | 0.3489 | 0.3267 | 0.3076 | 0.2964
x1 = 0.9902 | 741.47 | 736.22 | 730.94 | 725.59 | 0.3456 | 0.3214 | 0.2976 | 0.2892
